Data set [1] has as its target recombinant human BACE-1 protein (Homo sapiens (Human), UniProt P56817). The data set is described as follows: Measurement of Inhibition of β-Secretase Activity. It is filed as biochemical. To be noted: 3 h at 30° C., pH5.0, read-out: IC50 value. Put shortly: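 Recombinant human BACE-1 incubated with compound and Eu-cryptate-labelled biotinylated peptide substrate 3 h at 30° C in 50 mM sodium acetate pH 5.0, 0.008% Triton X-100. Streptavidin-XL665 in KF-containing phosphate buffer pH 7.0 then added, 1 h at 30° C, for time-resolved FRET read-out.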

Setting [2] is: fluorescence-quenched peptide substrate 18 nM, BACE-1 7.4 nM.
Setting [3] is: recombinant human BACE-1 protein.

Drawing on patent publication US8546380B2, “Aminodihydrothiazine derivatives” (Shionogi & Co., Ltd., priority 2005, dated 2013), this text covers IC50 and melting point for 24 molecules.

Where two headings read alike, the source gives them in different places.

Sequence of recombinant human BACE-1 protein (P56817 46-501): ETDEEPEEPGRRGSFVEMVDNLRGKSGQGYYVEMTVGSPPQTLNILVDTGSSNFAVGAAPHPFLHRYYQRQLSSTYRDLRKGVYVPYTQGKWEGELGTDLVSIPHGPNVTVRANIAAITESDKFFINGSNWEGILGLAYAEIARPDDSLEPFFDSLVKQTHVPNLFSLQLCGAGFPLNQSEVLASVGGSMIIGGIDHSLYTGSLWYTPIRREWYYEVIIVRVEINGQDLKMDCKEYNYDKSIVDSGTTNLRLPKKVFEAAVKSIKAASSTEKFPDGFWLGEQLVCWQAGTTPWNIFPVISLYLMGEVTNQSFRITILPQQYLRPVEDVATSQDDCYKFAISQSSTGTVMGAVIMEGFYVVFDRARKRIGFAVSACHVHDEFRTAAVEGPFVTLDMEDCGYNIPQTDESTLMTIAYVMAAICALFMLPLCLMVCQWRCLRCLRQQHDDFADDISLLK

What is called IC50 is the midpoint of a concentration-inhibition curve. For orientation: melting point means the temperature, or range, at which the solid turns liquid. `CC1(c2cccc(COc3ccc(Cl)cc3)c2)CCSC(N)=N1` (stereo not drawn) [Compound 1028] came in with a melting point of 105 to 106 °C. The IC50 in data set [1] (setting [2]) is less than 100 µM.

Turning to `COc1cc(NC(=O)c2ccc(Cl)cn2)cc(C2(C)CCSC(N)=N2)c1.Cl` (stereo not drawn) [Compound 1035], the melting point is 247 to 251 °C (dec.). Also, the IC50 in data set [1] (setting [3]) turned out to be 0.174 µM.

Molecule `CC1(c2ccc(Oc3ccccc3)cc2)CCSC(N)=N1` (stereo not drawn) [Compound 1055] returned a melting point of 169 to 170 °C. Besides, in data set [1] (setting [2]), the IC50 was less than 100 µM.

`CC1(c2ccc(Cl)cc2)CCSC(N)=N1` (stereo not drawn) [Compound 1062]: the melting point lay within 136 to 137 °C. Also, the IC50 in data set [1] (setting [2]) is less than 100 µM.

`CC1(c2ccc(F)c(OCCCc3ccccc3)c2)CCSC(N)=N1.Cl` (stereo not drawn) [Compound 1069] gave a melting point of 194 to 196 °C. Besides, the IC50 in data set [1] (setting [2]) was less than 100 µM.

`CC1(c2ccc3c(c2)CCO3)CCSC(N)=N1` (stereo not drawn) [Compound 1084] came in with a melting point of 146 to 149 °C. For the same molecule, in data set [1] (setting [2]), the IC50 was less than 100 µM.

Take `CC1(c2cccc(/C=C/C(=O)Nc3ccccc3)c2)CCSC(N)=N1` (stereo not drawn) [Compound 1109]: the melting point was in the range of 134 to 140 °C. The IC50 in data set [1] (setting [2]) was less than 100 µM.

`COc1ccc(NC(=O)/C=C(\Cl)c2cccc(C3(C)CCSC(N)=N3)c2)cc1` (stereo not drawn) [Compound 1114] returned a melting point of 121 to 124 °C. For the same molecule, in data set [1] (setting [2]), the IC50 is less than 100 µM.

As for `CC1(c2ccc(C(=O)NCc3ccccc3)s2)CCSC(N)=N1` (stereo not drawn) [Compound 1124], the melting point lay in the range of 169 to 172 °C. For the same molecule, in data set [1] (setting [2]), the IC50 is less than 100 µM.

Consider `CC1(c2ccc(F)c(C(=O)Nc3ccc(Cl)cn3)c2)CCSC(N)=N1` (stereo not drawn) [Compound 1125], for which the melting point lay in the range of 195 to 198 °C. In addition, in data set [1] (setting [2]), the IC50 is less than 100 µM.

In turn, `CC1(c2cccc(NC(=O)c3ccc(N4CCOCC4)cn3)c2)CCSC(N)=N1` (stereo not drawn) [Compound 1131] registered a melting point of 189 to 191 °C. In addition, in data set [1] (setting [2]), the IC50 was less than 100 µM.

As to `CC1(c2cc(Br)cc(NC(=O)c3ccno3)c2)CCSC(N)=N1.Cl` (stereo not drawn) [Compound 1132], the melting point is 175 to 180 °C (dec.). In addition, in data set [1] (setting [3]), the IC50 was determined as 2.56 µM.

As to `CC(C)Oc1cc(NC(=O)c2ccc(Cl)cn2)cc(C2(C)CCSC(N)=N2)c1.Cl` (stereo not drawn) [Compound 1135], the melting point was 255 to 260 °C (dec.). Further, the IC50 in data set [1] (setting [3]) is 2.3 µM.

For `CC1(c2cccc(/C(Cl)=C/C(=O)Nc3ccc(Cl)cn3)c2)CCSC(N)=N1` (stereo not drawn) [Compound 1142], the melting point is 182 to 186 °C (dec.). The 50% inhibitory concentration (IC50) in data set [1] (setting [2]) was less than 100 µM.

For `CC1(c2cccc(CNC(=O)c3ccc(Cl)cc3)c2)CCSC(N)=N1.Cl` (stereo not drawn) [Compound 1184], the melting point was 149 to 150 °C. Further, the IC50 in data set [1] (setting [2]) is less than 100 µM.

For the molecule `CC1(c2cccc(/C=N/OCc3ccccn3)c2)CCSC(N)=N1` (stereo not drawn) [Compound 1193], the melting point was in the range of 182 to 183 °C. Also, the IC50 in data set [1] (setting [2]) is less than 100 µM.

For the molecule `COCc1cc(NC(=O)c2ccc(Br)cc2)cc(C2(C)CCSC(N)=N2)c1.Cl` (stereo not drawn) [Compound 1197], the melting point was 250 to 255 °C (dec.). Besides, the IC50 in data set [1] (setting [3]) was determined as 0.912 µM.

As to `CC1(c2cc(NC(=O)c3ccc(Cl)cn3)ccc2Cl)CCSC(N)=N1.Cl` (stereo not drawn) [Compound 1199], the melting point lay within 274 to 283 °C. In data set [1] (setting [3]), the IC50 worked out at 0.032 µM.

In turn, `CC1(c2cccc(OCCCc3ccc(Cl)cc3)c2)CCSC(N)=N1` (stereo not drawn) [Compound 1207] registered a melting point of 106 to 108 °C. In addition, in data set [1] (setting [3]), the IC50 stood at 4 µM.

`CC1(c2cc(NC(=O)c3ccc(Cl)cn3)cc(C(=O)Nc3ccccc3)c2)CCSC(N)=N1` (stereo not drawn) [Compound 1217]: the melting point was in the range of 263 to 266 °C. Also, in data set [1] (setting [2]), the IC50 is less than 100 µM.

The molecule `CC1(c2cccc(CNC(=O)c3ccc(F)cc3)c2)CCSC(N)=N1.Cl` (stereo not drawn) [Compound 1241] came in with a melting point of 194 to 195 °C. Also, the IC50 in data set [1] (setting [2]) is less than 100 µM.

Molecule `CC1(c2cccc(NC(=O)c3ccc(C(F)(F)F)cn3)c2)CCSC(N)=N1.Cl` (stereo not drawn) [Compound 1244] registered a melting point of 268 to 288 °C. Also, the IC50 in data set [1] (setting [3]) stood at 0.13 µM.

In turn, `CC1(c2cccc(/C=C\CCc3ccc(Cl)cc3)c2)CCSC(N)=N1.Cl` (stereo not drawn) [Compound 1261] yielded a melting point of 179 to 180 °C. Besides, in data set [1] (setting [2]), the IC50 was less than 100 µM.

Molecule `CC1(c2cc(Br)cc(NC(=O)c3ccc(Br)cc3)c2)CCSC(N)=N1.Cl` (stereo not drawn) [Compound 1262] had a melting point of 278 to 281 °C. The IC50 in data set [1] (setting [3]) worked out at 0.14 µM.
